Consider one compound from US12178882B2, “Alpha polyglutamated pemetrexed and uses thereof” (L.E.A.F. HOLDINGS GROUP LLC, priority 2016, dated 2024).

Where only a bound is given, the exact number is not on record here.

The subject of series [1] is CCD841 colon epithelium cells. Description: Toxicity to CCD841 colon epithelium cells. It counts as cell-based. Particulars: all concentrations tested (16-128 nM), 48 hours, FIG. 17. From the text:
(§1) Methodologies used for cell line AML12 (non-cancerous liver cells) and CCD841 (non-cancerous colon epithelial cells) are similar to the methods used for cancer cells.

The test system of another series is AML12 liver cells. In words: Toxicity to AML12 liver cells. In kind it is cell-based. Particulars: all doses studied (16-128 nM), 48 hours, FIG. 16.
Text: as §1

Series [2] addresses T1, reduced folate carriers (RFCs) (Homo sapiens, UniProt P41440).
T1 sequence (P41440 1-591): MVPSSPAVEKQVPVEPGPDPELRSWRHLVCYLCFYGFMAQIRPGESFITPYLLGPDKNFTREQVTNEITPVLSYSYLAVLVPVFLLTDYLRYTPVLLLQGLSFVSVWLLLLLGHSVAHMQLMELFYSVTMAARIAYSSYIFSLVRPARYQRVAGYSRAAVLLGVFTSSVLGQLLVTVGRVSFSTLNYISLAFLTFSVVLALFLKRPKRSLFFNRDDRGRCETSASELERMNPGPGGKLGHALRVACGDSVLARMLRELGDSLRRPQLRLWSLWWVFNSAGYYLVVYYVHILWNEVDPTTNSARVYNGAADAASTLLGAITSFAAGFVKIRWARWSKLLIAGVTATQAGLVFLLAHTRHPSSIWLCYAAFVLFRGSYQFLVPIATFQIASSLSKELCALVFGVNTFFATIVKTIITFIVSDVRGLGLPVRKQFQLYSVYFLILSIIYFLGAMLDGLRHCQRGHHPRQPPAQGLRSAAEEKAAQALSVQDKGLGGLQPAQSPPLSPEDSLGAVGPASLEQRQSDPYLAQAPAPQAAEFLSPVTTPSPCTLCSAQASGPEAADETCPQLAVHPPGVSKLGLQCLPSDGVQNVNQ
The note with it: higher than MTX; cited from earlier work.

In the case of `Nc1nc2[nH]cc(CCc3ccc(C(=O)N[C@@H](CCC(=O)O)C(=O)O)cc3)c2c(=O)[nH]1` [pemetrexed], the “Decrease in the number of CCD841 colon epithelium cells” value in series [1] is recorded as no less than 50%. Besides, the “Reduction in the AML12 liver cell counts” value in the series on AML12 liver cells is on record as “approximately 40%”. Moreover, in series [2], the “Affinity of RFCs for PMX relative to that for MTX” value was 2 fold.
